Source: patent US4266048A, “Synthesis of analogs of 3'-phosphoadenosine 5'-phosphosulfate (PAPS)” (The United States of America as represented by the …, priority 1978, dated 1981)
Structures can show the parent of a compound that is named as a salt. One block for each compound: values may come before it.

Columns and labels:
[1] = biological target: T1, bovine adrenal estrogen sulfotransferase (EC 2.8.2.4) (Bos taurus, UniProt P19217); test: Relative sulfurylation rate (RSR): enzymic transfer of sulfate from analogs IV and V to estrone at saturating steroid; settings: for RSR (in words): sulfurylation of estrone relative to IVa (RSR=1); for reduction in RSR relative to IVa: 200 μM, may be a result of inhibition by coproducts; for calculated level of coproduct produced: nucleotide at 200 μM
T1 sequence (P19217 1-295): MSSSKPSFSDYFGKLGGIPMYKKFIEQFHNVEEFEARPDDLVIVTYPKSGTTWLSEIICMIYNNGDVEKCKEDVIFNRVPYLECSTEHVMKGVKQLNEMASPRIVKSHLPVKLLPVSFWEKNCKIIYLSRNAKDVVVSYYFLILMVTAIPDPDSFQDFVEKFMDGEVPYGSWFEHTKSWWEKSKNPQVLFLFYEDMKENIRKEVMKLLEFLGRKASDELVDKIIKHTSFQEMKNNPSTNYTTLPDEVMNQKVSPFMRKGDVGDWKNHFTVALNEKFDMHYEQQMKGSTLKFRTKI

[2] = biological target: T1, bovine adrenal estrogen sulfotransferase (EC 2.8.2.4); parameters: Ki data from Horwitz et al 1977; settings: cited from earlier work; for enzyme affinity / effect of coproduct (in words) / Ki of coproduct: estrogen sulfotransferase; for enzyme affinity / effect of coproduct (in words): discussion of Ki values; for Ki of coproduct: unit not given
[3] = biological target: T1, bovine adrenal estrogen sulfotransferase (EC 2.8.2.4); test: Sulfate transfer to [6,7-3H2]estrone by Compounds IVa and Va (biological activity); format: biochemical
Description: The biological activity of IV (like PAPS) may be measured by sulfate transfer to [6,7-^3 H2 ]estrone as mediated by bovine adrenal estrone sulfotransferase (3'-phosphoadenylylsulfate:estrone 3-sulfotransferase, EC 2.8.2.4) and is identical with that obtained with a sample of IV prepared by an established biochemical procedure.
Biological activity of IVa and Va was determined by sulfate transfer to [6,7-^3 H2 ]estrone in the presence of bovine adrenal estrogen sulfotransferase (E.C. 2.8.2.4).
Bovine spleen phosphodiesterase II (E.C. 3.1.4.18) and ribonuclease T2 were purchased from Sigma Chemical Company. Bovine adrenal estrogen sulfotransferase (E.C. 2.8.2.4.) was isolated and purified as described by Adams et al, Biochim. Biophys. Acta, 370:160-188 (1974). [^35 S]PAPS and [6,7-^3 H2 ]-estrone were purchased from New England Nuclear Corp.
Sulfation of estrone with synthetic Compound IVa (PAPS) was determined using the procedure described in the article by Rozhin et al, ante. Sulfation by Compound Va was as follows. The ability of Compound Va to donate its sulfate to estrone was determined with [6,7-^3 H2 ]estrone (1.3·10^6 dpm/4 nmol) by modification of the above-mentioned Rozhin et al method in which Compound Va (0.11 mM) […] for Compound IVa.
After termination of the incubation, excess free [^3 H]estrone was extracted three times with 0.3 ml of ethyl ether and the aqueous sample adjusted to 0.5 ml with redistilled methanol. An aliquot (25 μl) was applied, together with 15 μg of methanolic estrone sulfate marker, to type SG chromatography media (Gelman Instrument Co., Ann Arbor, Michigan) and developed with chloroform/acetone/acetic acid (110:35:6). Estrone sulfate was visualized by spraying with methylene blue and the spot punched out with a cork borer and counted in 10 ml of Bray's dioxane scintillation solution. […] The amount of steroid sulfate ester produced was calculated utilizing the specific activity of [^3 H]estrone.

Storage stability = format: physicochemical; settings: 50% ethanol at -20° C.
Description: Fractions containing Compound IVa were pooled and the buffer was removed in the usual manner. The product was redissolved in approx. 3 ml of H2 O and the solution was adjusted to pH 7 with dilute NH4 OH. Treatment of a small aliquot of the latter with an equal volume of 0.2 M HCl at 37° C. for 1.75 h gave adenosine 3',5'-diphosphate as the sole detectable product in Systems S1 and S2. Compound IVa was homogeneous in S1, S2, E1 and E2. […] Compound IVa gave yields of 68-72% based on Compound IIa.

[4] = biological target: T1, bovine adrenal estrogen sulfotransferase (EC 2.8.2.4); test: Inhibition / affinity of desulfurylated nucleotides (coproducts) on estrogen sulfotransferase; format: biochemical; parameters: Ki data from Horwitz et al 1977; settings: product of the reaction
Source text: ^b Data taken from Tables II and III of Horwitz et al, Biochim.

Structure (SMILES): Nc1ncnc2c1ccn2[C@@H]1O[C@H](COP(=O)(O)OS(=O)(=O)O)[C@@H](O)[C@H]1OP(=O)(O)O [2'P(7-deaza-Ado)5'PS, tubercidin 2'-phosphate 5'-phosphosulfate]
RSR (in words) [1]: relatively low

Structure (SMILES): Nc1ncnc2c1ccn2[C@@H]1O[C@H](COP(=O)(O)O)[C@@H](O)[C@H]1OP(=O)(O)O [2'P(7-deaza-Ado)5'P]
enzyme affinity / effect of coproduct (in words) [2]: has an effect on the estrogen sulfotransferase reaction
Ki of coproduct [2]: compares favorably with that of 3'PAdo5'P

Structure (SMILES): Nc1ncnc2c1ncn2[C@@H]1O[C@H](COP(=O)(O)O)[C@@H](O)[C@H]1OP(=O)(O)O [2'PAdo5'P, adenosine 2',5'-diphosphate]
Ki of desulfurylated nucleotide (coproduct) ([2]; data taken from Horwitz et al, Biochim. Biophys. Acta, 480:376-381 (1977)): .infin.
enzyme affinity / effect of coproduct (in words) [2]: weak and devoid of activity
Ki of coproduct [2]: .infin.

RSR at 200 μM (expected) ([1]; expected value at 200 μM concentration): ~0.29
saturation concentration ([1]; stated in Table III footnote c): 100 µM
activity relative to the natural isomer ([3]; Iso-PAPS, sulfate transfer to [6,7-3H2]estrone): approximately one-third
activity relative to the natural isomer (IVa) ([3]; sulfate transfer to estrone): approximately one-third
Structure (SMILES): Nc1ncnc2c1ncn2[C@@H]1O[C@H](COP(=O)(O)OS(=O)(=O)O)[C@@H](O)[C@H]1OP(=O)(O)O [2'PAdo5'PS, adenosine 2'-phosphate 5'-phosphosulfate]

Structure (SMILES): Nc1ncnc2c1nc(Br)n2[C@@H]1O[C@H](COP(=O)(O)OS(=O)(=O)O)[C@@H](OP(=O)(O)O)[C@H]1O [3'P8-BrAdo5'PS, 8-bromoadenosine 3'-phosphate 5'-phosphosulfate]
reduction in RSR relative to IVa [1]: 14-15%
calculated level of coproduct produced [1]: 4 µM
RSR (in words) [1]: compare favorably with active sulfate itself
RSR (in words) ([1]; listed as IVb): the largest

Structure (SMILES): Nc1ncnc2c1ccn2[C@@H]1O[C@H](COP(=O)(O)O)[C@@H](OP(=O)(O)O)[C@H]1O [3'P(7-deaza-Ado)5'P, tubercidin (4-amino-7-(β-D-ribofuranosyl)-7H-pyrrolo-[2,3-d]-pyrimidine) 3',5'-diphosphate]
enzyme affinity / effect of coproduct (in words) [2]: enhanced affinity

reduction in RSR relative to IVa [1]: 14-15%
calculated level of coproduct produced [1]: 4 µM
RSR (in words) ([1]; listed as IVe): the largest
Structure (SMILES): Nc1ncnc2c1ccn2[C@@H]1O[C@H](COP(=O)(O)OS(=O)(=O)O)[C@@H](OP(=O)(O)O)[C@H]1O [3'P(7-deaza-Ado)5'PS, tubercidin 3'-phosphate 5'-phosphosulfate]
RSR (in words) ([1]; listed as 3'PTu5'PS): compare favorably with active sulfate itself

storage stability (Storage stability): kept indefinitely
saturation curves for IV from two sources ([3]; IV 15-100 μM, [6,7-3H2]estrone 100 μM): essentially superimposable
activity compared with PAPS from enzymatic/biochemical procedure ([3]; sulfate transfer to [6,7-3H2]estrone, listed as IV): virtually identical
Structure (SMILES): Nc1ncnc2c1ncn2[C@@H]1O[C@H](COP(=O)(O)OS(=O)(=O)O)[C@@H](OP(=O)(O)O)[C@H]1O [3'PAdo5'PS, adenosine 3'-phosphate 5'-phosphosulfate]

Structure (SMILES): Nc1ncnc2c([C@@H]3O[C@H](COP(=O)(O)O)[C@@H](OP(=O)(O)O)[C@H]3O)n[nH]c12 [3'PFo5'P, formycin (7-amino-3-(β-D ribofuranosyl)pyrazolo-[4,3-d]-pyrimidine) 3',5'-diphosphate]
enzyme affinity / effect of coproduct (in words) [2]: intermediate affinity

Structure (SMILES): Nc1ncnc2c([C@@H]3O[C@H](COP(=O)(O)OS(=O)(=O)O)[C@@H](OP(=O)(O)O)[C@H]3O)n[nH]c12 [3'PFo5'PS, formycin 3'-phosphate 5'-phosphosulfate]
RSR (in words) [1]: modest capacity to sulfurylate estrone

Structure (SMILES): O=P(O)(O)OC[C@H]1O[C@@H](n2cnc3c(O)ncnc32)[C@H](O)[C@@H]1OP(=O)(O)O [3'PIno5'P, inosine 3',5'-diphosphate]
enzyme affinity / effect of coproduct (in words) [2]: substantial loss of enzyme affinity

Structure (SMILES): O=c1[nH]cnc2c1ncn2[C@@H]1O[C@H](COP(=O)(O)OS(=O)(=O)O)[C@@H](OP(=O)(O)O)[C@H]1O [3'PIno5'PS, inosine 3'-phosphate 5'-phosphosulfate]
RSR (in words) [1]: low
RSR (in words) ([1]; listed as IVd): only minimal

Structure (SMILES): O=P(O)(O)OC[C@H]1O[C@@H](n2cnc3cncnc32)[C@H](O)[C@@H]1OP(=O)(O)O [3'PPuo5'P, nebularine (9-β-D-ribofuranosylpurine) 3',5'-diphosphate]
enzyme affinity / effect of coproduct (in words) [2]: substantial loss of enzyme affinity

Structure (SMILES): O=P(O)(O)O[C@H]1[C@@H](O)[C@H](n2cnc3cncnc32)O[C@@H]1COP(=O)(O)OS(=O)(=O)O [3'PPuo5'PS, nebularine 3'-phosphate 5'-phosphosulfate]
RSR (in words) [1]: low
RSR (in words) ([1]; listed as IVc): only minimal

effect on the estrogen sulfotransferase reaction [4]: little or no effect
Structure (SMILES): C[C@]12CC[C@@H]3c4ccc(OS(=O)(=O)O)cc4CC[C@H]3[C@@H]1CCC2=O [Estrone sulfate]
